Measured values published in US20060241114A1, “Derivatives of azasugars as anticancer agents” (priority 2003, published 2006).

Assays:
[1] = system: DU145 (prostate carcinoma); assay: In vitro growth inhibition screen (sulphorhodamine B), DU145; type: cell-based, human; details: DU145 cells, incubated for 48 hours, sulphorhodamine B dye; read-out: GI50 (concentration which inhibits the cell growth by 50%), DU145 Prostate carcinoma
Protocol: (§1) Each agent was tested over a broad concentration range (ten-fold dilutions starting from ≧100 μM to 10 nM) against 6 human cancer cell lines which was comprised of different tumor types. These are DU145 (prostate carcinoma), HT29 (colorectal adenocarcinoma), LOX (melanoma), MCF7 (breast adenocarcinoma), MCF7ADR (adriamycin resistant breast adenocarcinoma), and U251 (human glioblastoma). A standard compound doxorubicin was tested in each assay as a positive control. The cells were maintained in growing condition in RPMI 1640 medium containing 10% fetal calf serum and incubated at 37° C. under 5% CO2 atmosphere. All cell lines were inoculated onto a series of standard 96-well microtitre plate on day zero, followed by twenty four-hour incubation in the absence of test compound. The inoculation densities in the screen were as per Monk et al., (1991) J. Natl. Cancer Inst., 83, 757-766. All NCEs were dissolved in DMSO and diluted further in culture medium. An aliquot of each dilution was added to the growing cells in 96 well plates and incubated for 48 hours. After incubation, the assay was terminated by adding 50 μL of trichloroacetic acid (TCA) and incubating at 4° C. for 30 min. The precipitated cells were washed and stained with sulphorhodamine B dye for 30 min and the excess dye was washed off with acetic acid. Adsorbed dye was solubilised in Tris base (alkaline pH) and quantitated by measuring the OD at […] in ELISA READER. GI50 (concentration which inhibits the cell growth by 50%) was calculated according to Boyd and Paull, (1995) Drug Dev. Res., 34, 91-109.

[2] = system: HT29 (colorectal adenocarcinoma); assay: In vitro growth inhibition screen (sulphorhodamine B), HT29; type: cell-based, human; details: HT29 cells, incubated for 48 hours, sulphorhodamine B dye; read-out: GI50 (concentration which inhibits the cell growth by 50%), HT29 Colorectal adenocarcinoma
Protocol: as §1

[3] = system: LOX (melanoma); assay: In vitro growth inhibition screen (sulphorhodamine B), LOX; type: cell-based, human; details: LOX cells, incubated for 48 hours, sulphorhodamine B dye; read-out: GI50 (concentration which inhibits the cell growth by 50%), LOX Melanoma
Protocol: as §1

[4] = system: MCF7 (breast adenocarcinoma); assay: In vitro growth inhibition screen (sulphorhodamine B), MCF7; type: cell-based, human; details: MCF7 cells, incubated for 48 hours, sulphorhodamine B dye; read-out: GI50 (concentration which inhibits the cell growth by 50%), MCF7 Breast adenocarcinoma
Protocol: as §1

[5] = system: MCF7ADR (adriamycin resistant breast adenocarcinoma); assay: In vitro growth inhibition screen (sulphorhodamine B), MCF7ADR; type: cell-based, human; details: MCF7ADR cells, incubated for 48 hours, sulphorhodamine B dye; read-out: GI50 (concentration which inhibits the cell growth by 50%), MCF7ADR Adriamycin Resistant Breast adenocarcinoma
Protocol: as §1

[6] = system: U251 (human glioblastoma); assay: In vitro growth inhibition screen (sulphorhodamine B), U251; type: cell-based; details: U251 cells, incubated for 48 hours, sulphorhodamine B dye; read-out: GI50 (concentration which inhibits the cell growth by 50%), U251 Human glioblastoma astrocytoma
Protocol: as §1

GI50 [1] [µM] | GI50 [2] [µM] | GI50 [3] [µM] | GI50 [4] [µM] | GI50 [5] [µM] | GI50 [6] [µM] | Compound
11.1 | 2.8 | 5.1 | 10.3 | 17.3 | 15.4 | CCCN1C[C@H](OCc2ccccc2)[C@@H](OCc2ccccc2)[C@H](OCc2ccccc2)[C@H]1CNC(=O)Nc1ccc(F)cc1F [Compound No. 37]
72.7 | 20.6 | 103 | 16.1 | 52.7 | 31.9 | CCCN1C[C@H](OCc2ccccc2)[C@@H](OCc2ccccc2)[C@H](OCc2ccccc2)[C@H]1CNC(=S)Nc1ccc(Cl)cc1 [Compound No. 39, 2,3,4-Tri-O-benzyl-6-N-{[4-chlorophenyl]aminothiocarbonylamino}-1,5-dideoxy-1,5-imino-N-propyl glucitol]
35.7 | 2 | 27.2 | 9.7 | 18.4 | 20.1 | CCCN1C[C@H](OCc2ccccc2)[C@@H](OCc2ccccc2)[C@H](OCc2ccccc2)[C@H]1CNC(=O)Nc1ccc(F)cc1 [Compound No. 40, 2,3,4-Tri-O-benzyl-6-N-{[4-fluorophenyl]aminocarbonylamino}-1,5-dideoxy-1,5-imino-N-propyl glucitol]
175 | 103 | > 373 | 232 | > 373 | > 373 | C=CCN1C(=O)[C@H](OCc2ccccc2)[C@@H](OCc2ccccc2)[C@H](OCc2ccccc2)[C@H]1COC(=S)Nc1ccc2ccccc2c1 [Compound No. 42, N-Allyl-2,3,4-Tri-O-benzyl-6-(2-naphthylithiocarbamate)-D-gluco-δ-lactam]
88.5 | 29.2 | 8.7 | 2.3 | 7.5 | 29.8 | C=CCN1C[C@H](OCc2ccccc2)[C@@H](OCc2ccccc2)[C@H](OCc2ccccc2)[C@H]1COC(=O)Nc1ccc(Cl)cc1 [Compound No. 44, N-Allyl-2,3,4-tri-O-benzyl-6-{p-chlorophenylcarbamate}-1,5-dideoxy-1,5-imino glucitol]
148 | 92.9 | > 419 | 397 | > 419 | > 419 | C=CCN1C(=O)[C@H](OCc2ccccc2)[C@@H](OCc2ccccc2)[C@H](OCc2ccccc2)[C@H]1COC(=O)c1cccs1 [Compound No. 45]
153 | 49.3 | 51.4 | 14.7 | 68.2 | 155 | CCCN1C(=O)[C@H](OCc2ccccc2)[C@@H](OCc2ccccc2)[C@H](OCc2ccccc2)[C@H]1CNC(=O)c1ccc(F)cc1F [Compound No. 47, 2,3,4-Tri-O-benzyl-6-N-{[2,4-difluorophenyl]carboxamido}-N-propyl-D-gluco-δ-lactam]
104 | 67.9 | 31.8 | 18.8 | 58.4 | 12.9 | CCCN1C(=O)[C@H](OCc2ccccc2)[C@@H](OCc2ccccc2)[C@H](OCc2ccccc2)[C@H]1CNC(=O)C12CC3CC(CC(C3)C1)C2 [Compound No. 48, 2,3,4-Tri-O-benzyl-6-(adamantanecarboxamido}-N-propyl-D-gluco-δ-lactam]
352 | 131 | 133 | 177 | 251 | 122 | CCCN1C(=O)[C@H](O)[C@@H](O)[C@H](O)[C@H]1CNC(=O)Nc1ccc(F)cc1F [Compound No. 49, 6-N-{[2,4Difluorophenyl]aminocarbonylamino}-N-propyl-D-gluco-δ-lactam]
7.2 | 6.8 | 0.9 | 6 | 0.8 | 2.9 | CCCN1C(=O)[C@H](OCc2ccccc2)[C@@H](OCc2ccccc2)[C@H](OCc2ccccc2)[C@H]1CNC(=O)CCl [Compound No. 52, 2,3,4-Tri-O-benzyl-6-N-{2-[chloro]-acetyl}-N-propyl-D-gluco-δ-lactam]
8.8 | 9.3 | 8.3 | 6.6 | 10 | 12.9 | CCCN1C(=O)[C@H](OCc2ccccc2)[C@@H](OCc2ccccc2)[C@H](OCc2ccccc2)[C@H]1CNC(=O)Cn1cncn1 [Compound No. 53, 2,3,4-Tri-O-benzyl-N-propyl-6-{2-[triazolyl]-acetyl}-D-gluco-δ-lactam]
5 | 3.6 | 2.3 | 4.1 | 6.6 | 3.2 | CCCN1C(=O)[C@H](OCc2ccccc2)[C@@H](OCc2ccccc2)[C@H](OCc2ccccc2)[C@H]1CNC(=O)CN1CCN(c2ncccn2)CC1 [Compound No. 54, 2,3,4-Tri-O-benzyl-6-N-{2-[4-(pyrimidyl)piperazinyl]acetyl}-N-propyl-D-gluco-δ-lactam]
4.1 | 4.7 | 3.3 | 8.2 | 10.2 | 4.1 | CCCN1C(=O)[C@H](OCc2ccccc2)[C@@H](OCc2ccccc2)[C@H](OCc2ccccc2)[C@H]1CNC(=O)CNc1ccc(F)cc1 [Compound No. 55, 2,3,4-Tri-O-benzyl-6-N-{2-[4-fluoroanilino]acetyl}-N-propyl-D-gluco-δ-lactam]
10.7 | 22.8 | 12 | 40.3 | 24.5 | 40.5 | CCCN1C(=O)[C@H](OCc2ccccc2)[C@@H](OCc2ccccc2)[C@H](OCc2ccccc2)[C@H]1COC(=O)CN1C(=O)CCCC1=O [Compound No. 56, 2,3,4-Tri-O-benzyl-6-{2-[2,6-diketopiperidino]acetyl}-N-propyl-D-gluco-δ-lactam]
64.4 | 22.7 | 25.1 | 20.1 | 247 | 154 | CCCN1C(=O)[C@H](OCc2ccccc2)[C@@H](OCc2ccccc2)[C@H](OCc2ccccc2)[C@H]1CNC(=O)Cn1ncn(-c2ccc(Cl)cc2)c1=O [Compound No. 57, 2,3,4-Tri-O-benzyl-6-N-{2-[4-chlorophenyl-3-(2H,4H)-1,2,4-triazol-3-onyl]acetyl}-N-propyl-D-gluco-δ-lactam]
19.4 | 7.9 | 2.8 | 8.2 | 10.2 | 13.4 | CCCN1C(=O)[C@H](OCc2ccccc2)[C@@H](OCc2ccccc2)[C@H](OCc2ccccc2)[C@H]1CNC(=O)CN1CCN(c2ccc(F)cc2)CC1 [Compound No. 58, 2,3,4-Tri-O-benzyl-6-N-{2-[4-(4-fluorophenyl)-piperazin-1-yl]acetyl}-N-propyl-D-gluco-δ-lactam]

Compound | GI50 [1] [µM] | GI50 [2] [µM] | GI50 [3] [µM] | GI50 [4] [µM] | GI50 [5] [µM] | GI50 [6] [µM]
C=CCN1C(=O)C(OCc2ccccc2)C(OCc2ccccc2)C(OCc2ccccc2)C1COC(=O)Nc1ccc(Cl)cc1 [Compound No. 41, N-Allyl-6-O-(4-chlorophenylcarbamate)-2,3,4-tri-O-benzyl-D-gluco-δ-lactam] | 142 | 71.2 | > 664 | 109 | > 664 | > 664
CCCN1C(=O)[C@H](O)[C@@H](O)[C@H](O)[C@H]1COC(=O)Nc1ccccc1 [Compound No. 43, N-Propyl-6-(phenylcarbamate)-N-propyl-D-gluco-δ-lactam] | 226 | 208 | 161 | 115 | 280 | 235
CCCN1C(=O)[C@H](OCc2ccccc2)[C@@H](OCc2ccccc2)[C@H](OCc2ccccc2)[C@H]1CNC(=O)c1cccs1 [Compound No. 46, 2,3,4-Tri-O-benzyl-N-propyl-6-{[2-thiophene]carboxamido}-D-gluco-δ-lactam] | 83.8 | 3.3 | 178 | 18.4 | 83.4 | 105
CCCN1C(=O)[C@H](O)[C@@H](O)[C@H](O)[C@H]1CNC(=O)C12CC3CC(CC(C3)C1)C2 [Compound No. 50, 6-(Adamantanecarboxamido)-N-propyl-D-gluco-δ-lactam] | 108 | 38.1 | 97.2 | 82.8 | 138 | 144
